Each compound was assayed against T1, K-Ras G12C (Homo sapiens, UniProt P01116, G12C) (assay: CAF assay (% CAF; method in Example 7, not in this part)). Conditions: 10 uM compound, 1 h incubation.
T1 construct: This protein contained 188 amino acids in total, including an N-terminal 6-Histidine tag; made in house; host or cells: E. coli BL21
Assay type: binding

| Compound | % CAF @ 10 uM, 1h [%] |
| --- | --- |
| C=CC(=O)N1CCN(c2nc(=O)n3c4c(c(-c5ccc(F)cc5F)c(Cl)cc24)SC[C@@H]3CC2CCN(CC(F)F)CC2)[C@@H](C)C1 [Example 414, (3S)-7-((S)-4-acryloyl-2-methylpiperazin-1-yl)-9-chloro-3-((1-(2,2-difluoroethyl)piperidin-4-yl)methyl)-10-(2,4-difluorophenyl)-2H-[1,4]thiazino[2,3,4-ij]quinazolin-5(3H)-one] | 92 |
| C=CC(=O)N1CCN(c2nc(=O)n3c4c(c(-c5cc(F)c(F)cc5F)c(Cl)cc24)SCC3)[C@@H](C)C1 [Example 409, 7-((S)-4-acryloyl-2-methylpiperazin-1-yl)-9-chloro-10-(2,4,5-trifluorophenyl)-2,3-dihydro-5H-[1,4]thiazino[2,3,4-ij]quinazolin-5-one] | 94 |

More lines, now with the values ahead:

| % CAF @ 10 uM, 1h [%] | Compound |
| --- | --- |
| 66.1 | C=CC(=O)N1C[C@H](C)N(c2nc(=O)n3c4c(c(-c5ccc(F)cc5)c(C(F)(F)F)cc24)SC[C@@H]3COCCOC)C[C@H]1C [Example 512, (S)-7-((2S,5R)-4-acryloyl-2,5-dimethylpiperazin-1-yl)-10-(4-fluorophenyl)-3-((2-methoxyethoxy)methyl)-9-(trifluoromethyl)-2H-[1,4]thiazino[2,3,4-ij]quinazolin-5(3H)-one] |
| 95.7 | C=CC(=O)N1CCN(c2nc(=O)n3c4c(c(-c5ccc(F)cc5F)c(C(F)(F)F)cc24)SC[C@@H]3CC2CCOCC2)[C@@H](C)C1 [Example 437, (3S)-7-((S)-4-acryloyl-2-methylpiperazin-1-yl)-10-(2,4-difluorophenyl)-3-((tetrahydro-2H-pyran-4-yl)methyl)-9-(trifluoromethyl)-2H-[1,4]thiazino[2,3,4-ij]quinazolin-5(3H)-one] |
| 97 | C=CC(=O)N1CCN(c2nc(=O)n3c4c(c(-c5cc(Cl)c(F)cc5F)c(C(F)(F)F)cc24)SC[C@H](OC)C3)CC1 [Example 534, (3R)-8-(4-acryloylpiperazin-1-yl)-11-(5-chloro-2,4-difluorophenyl)-3-methoxy-10-(trifluoromethyl)-3,4-dihydro-2H,6H-[1,4]thiazepino[2,3,4-ij]quinazolin-6-one] |
| 80.6 | C=CC(=O)N1C[C@H](C)N(c2nc(=O)n3c4c(c(-c5ccc(F)cc5F)c(C(F)(F)F)cc24)SC[C@@H]3COCCOC)C[C@H]1C (atropisomer, axis not shown) [Example 511, (3S,10R)-7-((2S,5R)-4-acryloyl-2,5-dimethylpiperazin-1-yl)-10-(2,4-difluorophenyl)-3-((2-methoxyethoxy)methyl)-9-(trifluoromethyl)-2,3-dihydro-5H-[1,4]thiazino[2,3,4-ij]quinazolin-5-one] |
| 80.2 | C=CC(=O)N1CCN(c2nc(=O)n3c4c(c(-c5ccc(F)cc5F)c(C(F)(F)F)cc24)SC[C@@H]3COCOC)[C@@H](C)C1 (atropisomer, axis not shown) [Example 549, (3S,10S)-7-((S)-4-acryloyl-2-methylpiperazin-1-yl)-10-(2,4-difluorophenyl)-3-((methoxymethoxy)methyl)-9-(trifluoromethyl)-2H-[1,4]thiazino[2,3,4-ij]quinazolin-5(3H)-one] |
| 66.8 | C=CC(=O)N1C[C@H](C)N(c2nc(=O)n3c4c(c(-c5ccc(F)cc5F)c(Cl)cc24)SC[C@@H]3COCCOC)C[C@H]1C [Example 501, (3S)-7-((2S,5R)-4-acryloyl-2,5-dimethylpiperazin-1-yl)-9-chloro-10-(2,4-difluorophenyl)-3-((2-methoxyethoxy)methyl)-2H-[1,4]thiazino[2,3,4-ij]quinazolin-5(3H)-one] |
| 92.8 | C=CC(=O)N1CCN(c2nc(=O)n3c4c(c(-c5ccc(F)cc5F)c(Cl)cc24)SC[C@@H]3CC2CCOCC2)[C@@H](C)C1 [Example 438, (3S)-7-((S)-4-acryloyl-2-methylpiperazin-1-yl)-9-chloro-10-(2,4-difluorophenyl)-3-((tetrahydro-2H-pyran-4-yl)methyl)-2H-[1,4]thiazino[2,3,4-ij]quinazolin-5(3H)-one] |
| 59.4 | C=CC(=O)N1C[C@H](C)N(c2nc(=O)n3c4c(c(-c5ccc(F)cc5)c(C(F)(F)F)cc24)SC[C@@H]3CC2CN(CC(F)F)C2)C[C@H]1C [Example 481, (S)-7-((2S,5R)-4-acryloyl-2,5-dimethylpiperazin-1-yl)-3-((1-(2,2-difluoroethyl)azetidin-3-yl)methyl)-10-(4-fluorophenyl)-9-(trifluoromethyl)-2,3-dihydro-5H-[1,4]thiazino[2,3,4-ij]quinazolin-5-one] |

Same assay, conditions: 10 uM, 1 h; Table 3

| % CAF @ 10 uM, 1h [%] | Compound |
| --- | --- |
| 65.5 | C=CC(=O)N1CCN(c2nc(=O)n3c4c(c(-c5ccc(F)cc5F)c(Cl)cc24)SCC3)CC1=O [Example 166, 7-(4-acryloyl-3-oxopiperazin-1-yl)-9-chloro-10-(2,4-difluorophenyl)-2,3-dihydro-5H-[1,4]thiazino[2,3,4-ij]quinazolin-5-one] |
| 93.3 | C=CC(=O)N1CCN(c2nc(=O)n3c4c(c(-c5ccc(F)cc5F)c(Cl)cc24)SCC3)[C@@H](CS(C)(=O)=O)C1 [Example 185, 7-((R)-4-acryloyl-2-((methylsulfonyl)methyl)piperazin-1-yl)-9-chloro-10-(2,4-difluorophenyl)-2,3-dihydro-5H-[1,4]thiazino[2,3,4-ij]quinazolin-5-one] |
| 58.3 | C=CC(=O)N1C[C@H](C)N(c2nc(=O)n3c4c(c(-c5ccc(F)cc5F)c(Cl)cc24)S(=O)(=O)CC3)C[C@H]1C (atropisomer, axis not shown) [Example 178, (R)-7-((2S,5R)-4-acryloyl-2,5-dimethylpiperazin-1-yl)-9-chloro-10-(2,4-difluorophenyl)-2,3-dihydro-5H-[1,4]thiazino[2,3,4-ij]quinazolin-5-one 1,1-dioxide] |
| 92.8 | C=CC(=O)N1CCN(c2nc(=O)n3c4c(c(-c5ccc(F)cc5F)c(CC)cc24)SCC3)[C@@H](C)C1 [Example 114, 7-((S)-4-acryloyl-2-methylpiperazin-1-yl)-10-(2,4-difluorophenyl)-9-ethyl-2,3-dihydro-5H-[1,4]thiazino[2,3,4-ij]quinazolin-5-one] |
| 48.3 | C=CC(=O)N1CCN(c2nc(=O)n3c4c(c(-c5ccc(F)cc5F)c(Cl)cc24)SCC3)C2CN(S(C)(=O)=O)CC21 (centres unmarked) [Example 118, 7-(4-acryloyl-6-(methylsulfonyl)octahydro-1H-pyrrolo[3,4-b]pyrazin-1-yl)-9-chloro-10-(2,4-difluorophenyl)-2,3-dihydro-5H-[1,4]thiazino[2,3,4-ij]quinazolin-5-one] |

| Compound | % CAF @ 10 uM, 1h [%] |
| --- | --- |
| C=CC(=O)N1CCN(c2nc(=O)n3c4c(c(-c5ccc(F)cc5F)c(Cl)cc24)[S@+]([O-])CC3)[C@@H](C)C1 [Example 192, 7-((S)-4-acryloyl-2-methylpiperazin-1-yl)-9-chloro-10-(2,4-difluorophenyl)-2,3-dihydro-5H-[1,4]thiazino[2,3,4-ij]quinazolin-5-one 1-oxide] | 62.4 |

Same assay, conditions: 10 μM, 1 h; Table 4

| % CAF @ 10 μM, 1 h [%] | Compound |
| --- | --- |
| 96 | C=CC(=O)N1CCN(c2nc(=O)n3c4c(c(-c5ccc(F)cc5F)c(C(F)(F)F)cc24)SC[C@@H]3CN2CCN(C3COC3)CC2)[C@@H](C)C1 [Example 352, (3S)-7-((S)-4-acryloyl-2-methylpiperazin-1-yl)-10-(2,4-difluorophenyl)-3-((4-(oxetan-3-yl)piperazin-1-yl)methyl)-9-(trifluoromethyl)-2H-[1,4]thiazino[2,3,4-ij]quinazolin-5(3H)-one] |

Reference: patent US20230107642A1 (Erasca, Inc., priority 2020, published 2023)
